# Source: patent US12268677B2, “4-aminopyridine (4-AP) and bone morphogenetic protein 2 (BMP-2)” (The Penn State Research Foundation, priority 2022, dated 2025)
# Columns and labels:
# [1] = tested on: BMP-2 gene expression in human fetal osteoblasts (hFOB); experiment: BMP-2 gene expression in human fetal osteoblasts (hFOB) by quantitative real-time PCR; type: cell-based; details: 1000 μM 4-AP for 3 days, normalized with β-actin
# Description: FIG. 3. 4-AP upregulates BMP-2 gene expression in human fetal osteoblasts (hFOB). […] The gene expression levels were normalized with β-actin and was then used to calculate fold change in 4-AP treated compared to control. Data are presented as mean±SEM (n=3). Values are significant at *p<0.05. Abbreviations used; 4-AP—4-aminopyridine. Human fetal osteoblasts (hFOB) were cultured in growth medium supplemented with 4-AP for 3 days. Total RNA was isolated from the cells at the end of treatment, converted to cDNA, and the gene expression of bone morphogenetic protein-2 (BMP-2) was analyzed by quantitative real-time PCR (FIG. 3).
# BMP-2 protein in hBMSCs = experiment: BMP-2 protein level in hBMSCs by western blot; type: cell-based, human; details: 1000 μM 4-AP
# Description: FIGS. 2A-2B. Western blot analysis of BMP-2 protein. Incubation of hBMSCs in Dulbecco's modified Eagle's medium supplemented with 10% FBS and penicillin/streptomycin (100 U/mL penicillin and […] streptomycin) in the presence of 1000 μM 4-AP increased BMP-2 protein at day 3, 7, and 14. The blots were stripped and reprobed with anti-GAPDH antibody. FIG. 2A: Representative image of a western blot of BMP-2 at day 3, 7, and 14. FIG. 2B: Densitometric analysis was carried out and the BMP-2 was normalized with GAPDH to calculate fold change. Data are presented as mean±SEM (n=3). Values are significant at *p<0.05, Abbreviations used; 4—AP-4-aminopyridine, BMP-2—bone morphogenetic protein-2, GAPDH-glyceraldehyde-3-phosphate dehydrogenase. Protein level by western blot: Total protein was extracted from hBMSCs with RIPA lysis buffer at the end of 3, 7, and 14 days of 4-AP treatment. The protein concentrations of cell lysates were determined using Pierce BCA Protein Assay kit (Thermo Fischer Scientific). Total cell lysates containing equal amounts of protein were denatured with SDS reducing buffer. The denatured proteins were separated on 10% polyacrylamide gel and transferred to a PVDF membrane. The blots were blocked and probed with primary and secondary antibodies, followed by visualization of bands by chemiluminescence peroxidase substrate. The BMP-2 band intensities were analyzed by ImageJ software (FIGS. 2A and 2B).
# [2] = tested on: BMP-2 gene expression in human bone marrow mesenchymal stem cells (hBMSCs); experiment: BMP-2 gene expression in hBMSCs by quantitative real-time PCR; type: cell-based; details: 1000 μM 4-AP
# Description: FIG. 1. 4-AP upregulates BMP-2 expression in human bone marrow mesenchymal stem cells (hBMSCs). hBMSCs were incubated in Dulbecco's modified Eagle's medium supplemented with 10% FBS and penicillin/streptomycin (100 U/mL penicillin and […] streptomycin) in the presence of 1000 μM 4-AP induced expression of BMP-2 gene. BMP-2 gene expression was increased at day 3 and remained high at day 7 and day 14. The gene expression levels of BMP-2 were normalized with β-actin and were then used to calculate fold change in 4-AP treated compared to control. Data are presented as mean±SEM (n=3). Values are significant at *p<0.05, **p<0.01. Abbreviations used; BMP-2 —bone morphogenetic protein-2. Human bone marrow mesenchymal stem cells (hBMSC) were cultured in growth medium supplemented with 4-AP for 3, 7, and 14 days. Total RNA was isolated from the cells at the end of treatment, converted to cDNA, and the gene expression of bone morphogenetic protein-2 (BMP-2) was analyzed by quantitative real-time PCR. Gene expression by quantitative real-time PCR: Quantitative real-time PCR was carried out to determine gene expression of BMP-2 by hBMSCs incubated in Dulbecco's modified Eagle's medium with 10% fetal bovine serum (FBS) and penicillin/streptomycin (100 U/mL penicillin and […] streptomycin) at a humidified atmosphere of 5% CO2 under 37° C. Cell cultures were supplemented with 1000 μM 4-AP for 3, 7, and 14 days. Total RNA was isolated from the cells and converted to cDNA using verso cDNA synthesis kit (Thermo Fischer Scientific). The cDNA obtained was analyzed in a quantitative real-time PCR (FIG. 1).
# [3] = tested on: tibial fracture in C57BL/6J mice; experiment: Mid-diaphysis tibial fracture healing in mice, micro-CT analysis of callus; type: in vivo
# Description: 8 week old C57Bl/6J mice were subjected to mid-diaphysis tibial fracture, treated with 4-AP for 21 days, and harvested. FIG. 4A: Representative X-ray images at the end of 21 days of 4-AP treatment. FIG. 4B: Representative micro-CT images of tibia fracture on day 21. […] FIG. 4D: Graphical presentation of Micro CT analysis of bone mineral density (BMD), and bone volume density (BV/TV). Data are presented as mean±SEM (n=6). Values are significant at *p<0.05.
# Ten-week-old male C57/BL6J mice were purchased from the Jackson laboratory (Bar Harbor, ME, USA) and were maintained in a 12-h light, 12-h dark cycle at 21.1° C. to 22.8° C. After acclimatization, all mice were randomly divided in to two groups: 1) control and 2) 4-AP.
# A mid diaphysis tibial fracture was performed in ten-week-old male mice. After the mice were anesthetized with ketamine/xylazine, a 5 mm longitudinal incision will be made at the front of the proximal tibia. The mid diaphysis of the tibia will be identified, and an osteotomy will be created with a No. 11 scalpel blade preventing any comminution. A 27G hypodermic needle will be introduced into the tibial canal for intramedullary fixation. Buprenorphine was given as post-operative analgesia. X-ray images were acquired post-operatively and mice received saline or 4-AP on the same day. Control group received 100 μl of saline, and a 4-AP group received 40 μg/mouse/daily 4-AP (1.6 mg/kg) in saline intraperitoneally until day 21 post-surgery.
# For micro-CT analysis, tibia of control and 4-AP mice were dissected of soft tissue and fixed in neutral buffered formalin. μCT scanning was conducted using a Scanco vivaCT 40. […] Callus area from control and 4-AP mice tibia were assessed for bone mineral density (BMD) and percent bone volume per total volume (% BV/TV).
# Tibial fracture was performed in C57BL/6J mice, which were then treated with 4-AP for 21 days for the evaluation of fracture healing parameters. The bone mineral density and bone volume density were determined by micro-CT analysis at the end of 21 days 4-AP treatment.
# [4] = C57BL/6J mice, tibial fracture, 40 μg/mouse/daily 4-AP (1.6 mg/kg) intraperitoneally, 21 days, micro-CT, compared to saline treated controls
structure (smiles),measurement,setting,value
"Nc1ccncc1 [4-AP, 4-aminopyridine]",expression of BMP-2 compared with the control group,[1],significantly increased
same,"BMP-2 protein (western blot, normalized with GAPDH)",BMP-2 protein in hBMSCs; day 3,increased
same,"BMP-2 protein (western blot, normalized with GAPDH)",BMP-2 protein in hBMSCs; day 7,increased
same,"BMP-2 protein (western blot, normalized with GAPDH)",BMP-2 protein in hBMSCs; day 14,increased
same,"BMP-2 gene expression (fold change vs control, normalized with β-actin)",[2]; day 3,increased
same,"BMP-2 gene expression (fold change vs control, normalized with β-actin)",[2]; day 7,remained high
same,"BMP-2 gene expression (fold change vs control, normalized with β-actin)",[2]; day 14,remained high
same,bone mineral density within the callus area,[3]; [4],higher
same,bone volume density (BV/TV) within the callus area,[3]; [4],higher
same,bone fracture healing,"[3]; C57Bl/6J mice, mid-diaphysis tibial fracture, treated with 4-AP for 21 days",enhanced
